According to ChEMBL document CHEMBL1201862, “PubChem BioAssay data set” (2004):
One block for each compound: values may come before it. Active and inactive are the calls of the source.

Experiments:
[1] = molecular target: Endoplasmic reticulum aminopeptidase 1 (Homo sapiens, UniProt Q9NZ08); assay: inhibition of human ERAP1 enzyme activity – biochemical, cherry-pick, set 2, plate reader, dose response (AID 743314)
[2] = molecular target: T1, Polyadenylate-binding protein 1 (Homo sapiens, UniProt P11940); assay: MLLE domain peptide-binding blockers, IC50 – biochemical, fluorescence polarization, FITC-PAM2 peptide, dose response (AID 602259); format: functional; settings: read-out: IC50_Mean
T1 sequence (P11940 whole entry, the tested form may be a part): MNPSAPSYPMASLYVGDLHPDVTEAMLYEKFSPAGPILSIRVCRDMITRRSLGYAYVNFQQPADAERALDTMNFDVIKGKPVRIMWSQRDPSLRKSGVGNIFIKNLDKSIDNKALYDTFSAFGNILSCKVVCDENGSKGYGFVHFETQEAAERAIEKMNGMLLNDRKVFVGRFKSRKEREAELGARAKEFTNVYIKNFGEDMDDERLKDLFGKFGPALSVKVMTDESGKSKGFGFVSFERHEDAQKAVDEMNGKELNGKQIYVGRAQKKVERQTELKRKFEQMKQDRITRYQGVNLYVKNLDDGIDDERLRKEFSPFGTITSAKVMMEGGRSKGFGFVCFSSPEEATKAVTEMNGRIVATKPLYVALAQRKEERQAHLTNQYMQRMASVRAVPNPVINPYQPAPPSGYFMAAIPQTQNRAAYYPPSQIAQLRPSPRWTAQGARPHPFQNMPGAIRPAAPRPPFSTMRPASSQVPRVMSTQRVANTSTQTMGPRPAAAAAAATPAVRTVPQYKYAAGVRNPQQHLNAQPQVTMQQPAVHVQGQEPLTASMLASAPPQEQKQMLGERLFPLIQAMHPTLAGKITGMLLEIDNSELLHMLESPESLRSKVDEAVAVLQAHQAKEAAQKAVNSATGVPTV

Aminopeptidase N = molecular target: T2, Aminopeptidase N (Plasmodium falciparum FcB1/Columbia, UniProt O96935); assay: malaria alanyl aminopeptidase activity blockers – biochemical, fluorogenic H-Leu-NHMec substrate, 1536-well (AID 1445); set-up: species or system Plasmodium falciparum 3D7, 3D7
T2 sequence (O96935 whole entry): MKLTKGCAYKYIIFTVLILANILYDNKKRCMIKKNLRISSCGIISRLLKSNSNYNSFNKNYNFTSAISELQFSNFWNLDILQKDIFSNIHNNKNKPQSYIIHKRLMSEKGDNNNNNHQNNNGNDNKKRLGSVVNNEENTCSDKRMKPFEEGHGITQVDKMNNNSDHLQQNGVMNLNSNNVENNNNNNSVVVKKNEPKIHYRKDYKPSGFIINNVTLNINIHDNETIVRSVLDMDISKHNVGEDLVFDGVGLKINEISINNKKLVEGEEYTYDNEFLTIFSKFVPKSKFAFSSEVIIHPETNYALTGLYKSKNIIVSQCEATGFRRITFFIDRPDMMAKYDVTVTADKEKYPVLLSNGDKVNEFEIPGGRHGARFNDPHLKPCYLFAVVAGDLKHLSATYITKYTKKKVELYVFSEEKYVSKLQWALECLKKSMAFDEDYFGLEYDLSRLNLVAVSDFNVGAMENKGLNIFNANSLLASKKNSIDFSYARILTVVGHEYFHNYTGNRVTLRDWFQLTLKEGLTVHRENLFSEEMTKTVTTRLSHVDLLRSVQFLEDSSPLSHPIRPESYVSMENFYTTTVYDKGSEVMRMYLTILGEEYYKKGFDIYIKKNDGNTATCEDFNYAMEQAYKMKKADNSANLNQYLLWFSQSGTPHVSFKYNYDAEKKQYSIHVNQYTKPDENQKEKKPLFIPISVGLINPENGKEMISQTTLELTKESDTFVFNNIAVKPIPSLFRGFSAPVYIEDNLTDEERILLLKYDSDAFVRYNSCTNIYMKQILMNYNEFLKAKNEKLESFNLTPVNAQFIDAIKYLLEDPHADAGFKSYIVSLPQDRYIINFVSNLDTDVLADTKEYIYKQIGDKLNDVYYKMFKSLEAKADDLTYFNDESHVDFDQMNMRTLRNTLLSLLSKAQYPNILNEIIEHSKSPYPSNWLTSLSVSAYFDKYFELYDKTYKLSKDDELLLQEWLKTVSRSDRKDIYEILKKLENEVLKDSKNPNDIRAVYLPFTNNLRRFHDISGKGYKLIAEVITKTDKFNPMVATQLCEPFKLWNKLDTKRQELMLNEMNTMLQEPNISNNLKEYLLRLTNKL

[3] = molecular target: T1, Polyadenylate-binding protein 1; assay: MLLE binding blockers, Cy5 peptide tracer – biochemical, fluorescence polarization, Cy5-PAM2 peptide, secondary, miRNA deadenylation inhibitor project, dose response (AID 602260); format: functional; settings: read-out: IC50_Mean
[4] = blockers of bursicon-stimulated LGR2 cAMP reporter – cell-based, HEK293, CRE-luciferase reporter, cherry pick, set 2, dose response (AID 743343); format: functional;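 further: transfected cells were stimulated with diluted bursicon conditioned medium after compound addition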
[5] = toxicity toward HepG2 liver cells – cell-based, plate reader, cherry-pick, antagonist series, cytotoxicity control, dose response (AID 743416); format: functional
[6] = A549 cell cytotoxicity, dose response, cytotoxicity control, plate reader, cherry-pick, antagonist series (AID 743412); format: functional, cell-based
[7] = blockade of melanocortin 4 receptor signaling – cell-based, plate reader, cherry pick, counter-screen for LGR2 antagonist project, dose response (AID 743444); format: functional;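 further: transfected HEK 293 cells stimulated with alpha-MSH peptide; potency of inhibitors of the alpha-MSH evoked signal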
[8] = viability loss in HEK293 cells – cell-based, plate reader, cherry-picked samples, cytotoxicity control, dose response (AID 743446); format: functional
[9] = Luminescence Cell-Based Dose Confirmation HTS to Identify Activators of 5'UTR Stem-Loop Driven Alpha-Synuclein mRNA Translation in H4 Neuroglioblastoma Cells. [Related pubchem assays: 1829 (Project Summary), 1814 (Primary HTS)]; format: functional
[10] = HIV-1 Vif–A3G interaction blockers – biochemical, TR-FRET, GST-Vif 1-94, biotin-A3G peptide, dose response retest, primary screen (AID 1117319); format: functional;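 further: TR-FRET signal of purified GST-Vif binding a biotinylated A3G peptide; inhibitors lower the FRET signal by blocking Vif and A3G binding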
[11] = Luminescence Cell-Based Dose Response HTS to Identify Activators of Luciferase Translation or Activity in H4 […] Cells. [Related pubchem assays: 1829 (Project Summary), 1814 (Primary HTS)]; format: functional
[12] = molecular target: T3, Oxysterols receptor LXR-beta (Homo sapiens, UniProt P55055); format: functional, cell-based
T3 sequence (P55055 whole entry): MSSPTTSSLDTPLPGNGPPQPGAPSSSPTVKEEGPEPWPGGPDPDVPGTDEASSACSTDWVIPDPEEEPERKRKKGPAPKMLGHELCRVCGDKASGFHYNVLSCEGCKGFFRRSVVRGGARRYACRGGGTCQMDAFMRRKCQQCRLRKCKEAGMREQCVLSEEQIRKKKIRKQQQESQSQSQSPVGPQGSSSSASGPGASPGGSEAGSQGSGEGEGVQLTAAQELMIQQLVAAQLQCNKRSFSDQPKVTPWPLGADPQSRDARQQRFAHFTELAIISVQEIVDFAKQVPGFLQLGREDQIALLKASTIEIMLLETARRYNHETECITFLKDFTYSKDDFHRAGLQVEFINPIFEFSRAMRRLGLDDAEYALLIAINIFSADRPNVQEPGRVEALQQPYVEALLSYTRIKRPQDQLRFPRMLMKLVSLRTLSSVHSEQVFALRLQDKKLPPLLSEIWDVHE

[13] = molecular target: FAD-linked sulfhydryl oxidase ALR (Homo sapiens, UniProt P55789); assay: ALR-catalysed DTT oxidation blockers – biochemical, H2O2 detection, luminescence, cherry-pick, dose response (AID 493248)
Chain of FAD-linked sulfhydryl oxidase ALR (P55789 whole entry): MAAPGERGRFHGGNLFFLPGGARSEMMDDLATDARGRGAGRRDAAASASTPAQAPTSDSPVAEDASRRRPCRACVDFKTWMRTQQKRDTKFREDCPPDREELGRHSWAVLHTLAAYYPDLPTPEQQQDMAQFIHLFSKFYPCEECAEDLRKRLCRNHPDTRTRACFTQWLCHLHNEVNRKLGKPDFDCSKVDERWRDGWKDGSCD

[14] = molecular target: T4, Sentrin-specific protease 7 (Homo sapiens, UniProt Q9BQF6); format: functional;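 further: Luminescence-based dose-response confirmation of ultra-high-throughput screening hits, measuring inhibition of SENP7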
T4 sequence (Q9BQF6 whole entry): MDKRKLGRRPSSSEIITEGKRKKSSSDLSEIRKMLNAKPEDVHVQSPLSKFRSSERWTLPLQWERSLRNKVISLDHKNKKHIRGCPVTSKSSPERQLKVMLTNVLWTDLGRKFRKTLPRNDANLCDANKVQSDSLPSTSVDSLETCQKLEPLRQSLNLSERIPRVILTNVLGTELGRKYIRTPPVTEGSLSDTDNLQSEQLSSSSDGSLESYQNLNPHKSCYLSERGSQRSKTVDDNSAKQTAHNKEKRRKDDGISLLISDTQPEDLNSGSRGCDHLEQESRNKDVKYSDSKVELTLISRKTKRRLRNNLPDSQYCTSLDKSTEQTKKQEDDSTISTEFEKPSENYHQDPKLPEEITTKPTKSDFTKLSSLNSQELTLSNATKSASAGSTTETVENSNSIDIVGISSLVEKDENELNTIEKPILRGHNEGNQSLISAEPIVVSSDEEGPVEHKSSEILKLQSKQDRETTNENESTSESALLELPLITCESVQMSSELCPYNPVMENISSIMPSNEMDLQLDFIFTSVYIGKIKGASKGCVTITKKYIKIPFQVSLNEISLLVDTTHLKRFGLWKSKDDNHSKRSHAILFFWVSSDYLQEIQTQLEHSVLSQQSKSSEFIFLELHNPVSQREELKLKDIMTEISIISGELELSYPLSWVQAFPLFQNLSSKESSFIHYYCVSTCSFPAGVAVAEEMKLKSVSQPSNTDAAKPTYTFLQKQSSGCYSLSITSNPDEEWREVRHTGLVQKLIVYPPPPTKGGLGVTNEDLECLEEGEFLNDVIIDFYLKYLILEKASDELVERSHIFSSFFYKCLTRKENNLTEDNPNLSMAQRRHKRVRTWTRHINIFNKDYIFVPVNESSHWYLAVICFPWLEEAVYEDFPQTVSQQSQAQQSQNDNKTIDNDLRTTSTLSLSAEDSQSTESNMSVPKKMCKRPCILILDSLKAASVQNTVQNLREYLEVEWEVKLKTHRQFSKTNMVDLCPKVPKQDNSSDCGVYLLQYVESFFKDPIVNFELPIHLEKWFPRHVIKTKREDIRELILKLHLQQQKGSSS

[15] = molecular target: T5, Sentrin-specific protease 8 (Homo sapiens, UniProt Q96LD8); format: functional;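 further: luminescence read-out of SENP8 inhibition, dose-response confirmation following an ultra-high-throughput screen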
T5 sequence (Q96LD8 whole entry): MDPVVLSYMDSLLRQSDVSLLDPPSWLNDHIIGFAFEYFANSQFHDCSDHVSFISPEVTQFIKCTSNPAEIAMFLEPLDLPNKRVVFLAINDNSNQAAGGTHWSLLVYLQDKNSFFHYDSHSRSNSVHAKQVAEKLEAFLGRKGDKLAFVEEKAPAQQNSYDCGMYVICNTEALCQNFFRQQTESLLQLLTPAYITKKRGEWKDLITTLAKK

[16] = molecular target: T6, Sentrin-specific protease 6 (Homo sapiens, UniProt Q9GZR1); format: functional;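 further: Luminescence-based dose-response confirmatory assay of SENP6 inhibition, following up an ultra-high-throughput screen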
T6 sequence (Q9GZR1 whole entry): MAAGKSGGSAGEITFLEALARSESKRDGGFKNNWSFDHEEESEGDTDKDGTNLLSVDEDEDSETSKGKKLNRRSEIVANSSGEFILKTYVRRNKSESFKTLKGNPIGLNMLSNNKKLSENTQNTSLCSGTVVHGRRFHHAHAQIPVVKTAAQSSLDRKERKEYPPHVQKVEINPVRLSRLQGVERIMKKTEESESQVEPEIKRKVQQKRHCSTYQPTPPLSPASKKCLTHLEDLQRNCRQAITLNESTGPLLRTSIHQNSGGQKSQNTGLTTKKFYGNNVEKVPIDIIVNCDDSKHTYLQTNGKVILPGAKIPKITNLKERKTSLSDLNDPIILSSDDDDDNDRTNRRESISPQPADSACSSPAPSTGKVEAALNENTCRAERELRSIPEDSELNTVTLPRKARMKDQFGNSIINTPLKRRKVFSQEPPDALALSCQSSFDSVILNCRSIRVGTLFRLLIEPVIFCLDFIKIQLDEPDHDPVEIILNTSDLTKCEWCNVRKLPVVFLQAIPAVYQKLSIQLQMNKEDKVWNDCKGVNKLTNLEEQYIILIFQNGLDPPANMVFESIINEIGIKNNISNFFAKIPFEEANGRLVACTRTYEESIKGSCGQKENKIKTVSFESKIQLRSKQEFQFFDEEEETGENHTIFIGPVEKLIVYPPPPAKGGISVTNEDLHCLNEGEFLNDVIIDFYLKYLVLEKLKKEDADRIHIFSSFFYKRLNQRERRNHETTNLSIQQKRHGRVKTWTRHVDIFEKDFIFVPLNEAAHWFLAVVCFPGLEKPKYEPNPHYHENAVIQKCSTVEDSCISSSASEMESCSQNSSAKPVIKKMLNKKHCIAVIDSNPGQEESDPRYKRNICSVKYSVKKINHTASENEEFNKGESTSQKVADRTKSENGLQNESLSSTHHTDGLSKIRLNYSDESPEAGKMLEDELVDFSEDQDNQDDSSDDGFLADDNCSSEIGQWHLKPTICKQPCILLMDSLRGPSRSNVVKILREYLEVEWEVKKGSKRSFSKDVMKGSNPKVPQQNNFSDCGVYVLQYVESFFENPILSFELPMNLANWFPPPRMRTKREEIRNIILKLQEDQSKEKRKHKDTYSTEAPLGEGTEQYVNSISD

Caspase-3 = molecular target: T7, Caspase-3 (Homo sapiens, UniProt P42574); format: functional;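 further: Dose-response selectivity test against caspase-3 for candidate inhibitors of sentrin-specific proteases (SENPs)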
T7 sequence (P42574 whole entry): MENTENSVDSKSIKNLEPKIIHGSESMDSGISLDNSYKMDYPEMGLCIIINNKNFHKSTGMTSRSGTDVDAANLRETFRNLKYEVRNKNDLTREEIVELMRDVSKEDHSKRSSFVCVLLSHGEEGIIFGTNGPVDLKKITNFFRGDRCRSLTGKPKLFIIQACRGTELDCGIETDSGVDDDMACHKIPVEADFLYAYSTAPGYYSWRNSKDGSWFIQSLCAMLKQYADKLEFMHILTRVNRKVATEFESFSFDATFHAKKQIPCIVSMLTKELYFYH

[17] = molecular target: T3, Oxysterols receptor LXR-beta; format: functional, cell-based; remark: listed apart in the source
Cytochrome P450 2C19 = Cytochrome P450 2C19 (Homo sapiens, UniProt P33261); assay: Cytochrome panel assay with activity outcomes. Panel member name: p450-cyp2c19 Compounds with AC50 equal or less than 10 uM are considered active; format: functional
Chain of Cytochrome P450 2C19 (P33261 whole entry): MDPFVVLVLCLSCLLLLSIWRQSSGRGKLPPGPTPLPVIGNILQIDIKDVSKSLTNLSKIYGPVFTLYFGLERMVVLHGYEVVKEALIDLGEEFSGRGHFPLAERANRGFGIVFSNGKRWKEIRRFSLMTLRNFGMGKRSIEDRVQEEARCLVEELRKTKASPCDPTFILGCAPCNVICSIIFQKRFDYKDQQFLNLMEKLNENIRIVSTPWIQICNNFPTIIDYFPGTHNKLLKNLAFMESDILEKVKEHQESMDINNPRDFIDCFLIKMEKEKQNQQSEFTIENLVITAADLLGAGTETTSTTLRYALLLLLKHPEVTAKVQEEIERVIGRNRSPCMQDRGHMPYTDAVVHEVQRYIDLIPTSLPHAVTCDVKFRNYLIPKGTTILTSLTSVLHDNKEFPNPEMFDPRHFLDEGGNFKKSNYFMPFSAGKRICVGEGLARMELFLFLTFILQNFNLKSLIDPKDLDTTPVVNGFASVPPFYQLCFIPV

Cytochrome P450 2D6 = Cytochrome P450 2D6 (Homo sapiens, UniProt P10635);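 further: CYP2D6 member of a cytochrome P450 panel assay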
Chain of Cytochrome P450 2D6 (P10635 whole entry): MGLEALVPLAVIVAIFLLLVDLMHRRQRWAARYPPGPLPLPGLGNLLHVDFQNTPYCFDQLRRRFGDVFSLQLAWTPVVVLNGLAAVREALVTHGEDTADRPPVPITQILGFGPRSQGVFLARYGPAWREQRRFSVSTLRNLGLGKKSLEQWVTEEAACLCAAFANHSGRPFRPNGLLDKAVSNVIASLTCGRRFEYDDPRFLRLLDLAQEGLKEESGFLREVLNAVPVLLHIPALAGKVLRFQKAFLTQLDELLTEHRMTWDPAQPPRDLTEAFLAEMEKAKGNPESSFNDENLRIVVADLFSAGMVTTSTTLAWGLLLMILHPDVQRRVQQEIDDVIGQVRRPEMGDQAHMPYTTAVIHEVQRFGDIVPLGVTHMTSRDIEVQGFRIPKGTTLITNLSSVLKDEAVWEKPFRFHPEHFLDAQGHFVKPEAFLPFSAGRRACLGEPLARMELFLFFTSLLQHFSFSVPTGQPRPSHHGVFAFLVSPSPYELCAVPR

Cytochrome P450 2C9 = Cytochrome P450 2C9 (Homo sapiens, UniProt P11712)
Chain of Cytochrome P450 2C9 (P11712 whole entry): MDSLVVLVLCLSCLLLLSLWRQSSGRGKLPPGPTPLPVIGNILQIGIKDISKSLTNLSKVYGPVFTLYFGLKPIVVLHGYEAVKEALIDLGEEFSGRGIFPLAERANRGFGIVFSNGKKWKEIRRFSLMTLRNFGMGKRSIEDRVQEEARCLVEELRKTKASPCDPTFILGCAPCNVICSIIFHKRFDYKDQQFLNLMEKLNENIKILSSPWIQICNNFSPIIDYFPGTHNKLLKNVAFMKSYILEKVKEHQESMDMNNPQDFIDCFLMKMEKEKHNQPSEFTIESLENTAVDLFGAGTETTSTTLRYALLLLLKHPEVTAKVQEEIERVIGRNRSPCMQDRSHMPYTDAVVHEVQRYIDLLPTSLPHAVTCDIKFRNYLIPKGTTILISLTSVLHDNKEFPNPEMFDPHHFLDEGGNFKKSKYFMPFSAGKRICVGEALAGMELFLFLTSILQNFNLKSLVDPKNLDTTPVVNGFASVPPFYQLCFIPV

Chain of Endoplasmic reticulum aminopeptidase 1 (Q9NZ08 whole entry, the tested form may be a part): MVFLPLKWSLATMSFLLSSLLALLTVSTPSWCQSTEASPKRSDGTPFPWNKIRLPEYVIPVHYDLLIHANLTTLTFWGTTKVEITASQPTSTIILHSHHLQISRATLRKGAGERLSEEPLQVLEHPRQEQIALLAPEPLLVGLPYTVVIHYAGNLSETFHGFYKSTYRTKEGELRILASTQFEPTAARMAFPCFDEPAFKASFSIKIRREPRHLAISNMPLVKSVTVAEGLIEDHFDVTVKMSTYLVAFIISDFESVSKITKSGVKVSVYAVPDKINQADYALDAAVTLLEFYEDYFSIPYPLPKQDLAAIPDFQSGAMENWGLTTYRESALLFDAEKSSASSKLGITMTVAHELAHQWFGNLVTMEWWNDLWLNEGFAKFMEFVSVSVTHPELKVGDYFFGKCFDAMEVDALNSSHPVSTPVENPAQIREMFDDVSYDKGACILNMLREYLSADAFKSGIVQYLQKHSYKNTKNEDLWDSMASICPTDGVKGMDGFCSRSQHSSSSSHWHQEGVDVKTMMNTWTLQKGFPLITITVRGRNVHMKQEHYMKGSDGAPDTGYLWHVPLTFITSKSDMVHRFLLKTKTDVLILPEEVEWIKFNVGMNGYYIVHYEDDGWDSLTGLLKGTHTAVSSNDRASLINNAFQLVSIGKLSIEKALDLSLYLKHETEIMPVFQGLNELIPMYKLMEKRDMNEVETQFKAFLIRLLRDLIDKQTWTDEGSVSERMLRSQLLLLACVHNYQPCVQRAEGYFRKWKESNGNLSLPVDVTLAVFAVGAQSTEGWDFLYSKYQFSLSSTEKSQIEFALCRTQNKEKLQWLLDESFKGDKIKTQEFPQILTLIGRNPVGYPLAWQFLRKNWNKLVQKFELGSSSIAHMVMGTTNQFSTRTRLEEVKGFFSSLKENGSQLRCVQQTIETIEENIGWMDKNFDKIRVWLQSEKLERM

AC50 [1]: 4.88 µM (active)
IC50 [2]: 39.1 µM (inactive)
IC50 (Aminopeptidase N): 48.6 µM (active)
IC50 [3]: > 66 µM (inactive)
Compound: CCN(CC)Cc1c(O)c(Cl)cc2c(C)cc(=O)oc12

Compound: N#C[C@H]1[C@H](c2ccc(C#Cc3ccccc3F)cc2)[C@H](CO)N1C(=O)C1CC1
AC50 [4]: 16.4 µM (active)
AC50 [5]: 34.7 µM (active)
AC50 [6]: 23.9 µM (active)
AC50 [7]: 12.8 µM (active)
AC50 [8]: 15.4 µM (active)

Compound: COC(=O)[C@H]1[C@H](CO)[C@H]2Cn3c(ccc(/C=C/c4ccccc4)c3=O)[C@@H]1N2CC1CCCC1
AC50 [1]: 11.9 µM (active)

Compound: CCCS(=O)(=O)NCc1cn2c(C)csc2n1
EC50 [9]: 6.17 µM (active)
IC50 [10]: > 100 µM (active)
EC50 [11]: 12.6 µM (active)
EC50 [12]: > 67.5 µM (inactive)

Compound: OCc1cccc(-c2cnc3c(Nc4cccc(OC(F)(F)C(F)F)c4)nccn23)c1
AC50 [4]: 23.8 µM (active)
AC50 [5]: 41.7 µM (active)
AC50 [6]: 43.3 µM (active)
AC50 [7]: 26.8 µM (active)
AC50 [8]: > 52 µM (inactive)

AC50 [13]: 1.29 µM (active)
IC50 [14]: 9.64 µM (active)
IC50 [16]: 25.8 µM (active)
IC50 (Caspase-3): 34.5 µM (active)
EC50 [12]: > 67.6 µM (inactive)
Compound: Cc1cccc(N=Nc2cnc(N)s2)c1
IC50 [15]: 19.1 µM (active)

Compound: CC(C)(C)c1ccc(Nc2[nH]nc3ccccc23)cc1
EC50 (cells): > 67.6 µM (inactive)
EC50 [17]: > 67.6 µM (inactive)

AC50 [1]: 6.65 µM (active)
Compound: CCCN1[C@@H]2c3ccc(/C=C/c4ccccc4)c(=O)n3C[C@H]1[C@H](CO)[C@H]2C(=O)NCc1ccccn1

Compound: Cn1cc(-c2nnc(-c3ccccc3)o2)c2ccccc21
EC50 (cells): > 67.5 µM (inactive)
AC50 (Cytochrome P450 2C19): inconclusive
AC50 (Cytochrome P450 2D6): 3.55 µM (inconclusive)
EC50 [17]: > 67.5 µM (inactive)
AC50 (Cytochrome P450 2C9): inconclusive
